Measured values reported in patent US12606541B2, “PPARg modulators and methods of use” (Eisai R&D Management Co., Ltd., priority 2020, dated 2026).

Legend:
His6-TEV-PPARγ-(234-505) = target: T1, His6-TEV-PPARγ-(234-505) (Homo sapiens, UniProt P37231); assay: TR-FRET Assay to Measure Co-R Peptide Recruitment to PPARγ; type: biochemical; settings: Co-R peptide (SMRT-ID2) recruitment; top final concentration 20 μM; read-out: TR-FRET i-Ag; AC50
T1 construct: The His6-TEV-PPARγ-(234-505) protein for assay was expressed and purified; TEV cleavage site (N); made in house
T1 sequence (P37231 234-505): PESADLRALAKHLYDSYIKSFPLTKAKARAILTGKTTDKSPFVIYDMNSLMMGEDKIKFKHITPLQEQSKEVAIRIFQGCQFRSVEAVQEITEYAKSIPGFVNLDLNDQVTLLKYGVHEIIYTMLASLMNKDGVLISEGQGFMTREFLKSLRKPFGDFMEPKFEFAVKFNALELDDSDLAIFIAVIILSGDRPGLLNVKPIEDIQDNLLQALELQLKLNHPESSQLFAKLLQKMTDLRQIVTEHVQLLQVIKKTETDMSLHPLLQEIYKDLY
Outline: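 His-tagged PPARγ (or controls) was preincubated with compound for 20 minutes at room temperature, then 5 nM anti-His terbium antibody and 200 nM FITC-labeled SMRT-ID2 corepressor peptide (final) were added for a further hour. TR-FRET signal was normalized to percent response using 500 nM T0070907 and DMSO controls.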

UM-UC-9 engineered cells = assay: Cell proliferation / short-term viability assay, CellTiter-Glo 144 h; type: cell-based, human; settings: Homo sapiens, UM-UC-9, 144 h, read-out: CTGlo 144 h UMUC9.5, G150
Outline: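 UM-UC-9 engineered assay-ready cells seeded at 500 cells/well in high-glucose DMEM/10% FBS, treated from dose-response plates, grown at 37° C, 5% CO2. CellTiter-Glo 2.0 luminescence read on day 7, with a day-0 pretreatment plate as T0 reference and DMSO wells as negative control.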

| SMILES | AC50 (His6-TEV-PPARγ-(234-505)) | IC50 (UM-UC-9 engineered cells) |
| --- | --- | --- |
| COc1cc(-c2cc(C(=O)N3CC[C@H](C(=O)NCC45COC(C(F)(F)F)(C4)C5)CC34CC4)n[nH]2)c(F)cn1 [Example 443, (S)-4-(5-(5-fluoro-2-methoxypyridin-4-yl)-1H-pyrazole-3-carbonyl)-N-((1-(trifluoromethyl)-2-oxabicyclo[2.1.1]hexan-4-yl)methyl)-4-azaspiro[2.5]octane-7-carboxamide] | 21.4 nM | 40.3 nM |
| COc1cc(-c2cc(C(=O)N3CCC(C(=O)N[C@H]4CC[C@@](O)(C(F)(F)F)CC4)CC34COC4)n[nH]2)c(F)cn1 (some centres unmarked) [Example 444, 5-(5-(5-fluoro-2-methoxypyridin-4-yl)-1H-pyrazole-3-carbonyl)-N-((1r,4r)-4-hydroxy-4-(trifluoromethyl)cyclohexyl)-2-oxa-5-azaspiro[3.5]nonane-8-carboxamide] | 113 nM | > 10000 nM |
| COc1cc(-c2cc(C(=O)N3CC[C@H](C(=O)NCc4ncc(OC5COC5)cc4Cl)CC34CC4)n[nH]2)c(F)cn1 [Example 446, (S)—N-((3-chloro-5-(oxetan-3-yloxy)pyridin-2-yl)methyl)-4-(5-(5-fluoro-2-methoxypyridin-4-yl)-1H-pyrazole-3-carbonyl)-4-azaspiro[2.5]octane-7-carboxamide] | 1.3 nM | 27.4 nM |
| COc1cc(-c2cc(C(=O)N3CC[C@H](C(=O)NCc4ncc(N5CC(C)NC(C)C5)cn4)CC34CC4)n[nH]2)c(F)cn1 (stereo partly drawn) [Example 447, (7S)—N-((5-(3,5-dimethylpiperazin-1-yl)pyrimidin-2-yl)methyl)-4-(5-(5-fluoro-2-methoxypyridin-4-yl)-1H-pyrazole-3-carbonyl)-4-azaspiro[2.5]octane-7-carboxamide] | 508 nM | 3630 nM |
| COc1cc(-c2cc(C(=O)N3CC[C@H](C(=O)NC4(C#N)CC4)CC34CC4)n[nH]2)c(F)cn1 [Example 448, (S)—N-(1-cyanocyclopropyl)-4-(5-(5-fluoro-2-methoxypyridin-4-yl)-1H-pyrazole-3-carbonyl)-4-azaspiro[2.5]octane-7-carboxamide] | 123 nM | 1640 nM |
| COc1cnc(CNC(=O)[C@H]2CCN(C(=O)c3cc(-c4cc(OC)ncc4F)[nH]n3)C3(CC3)C2)nc1 [Example 455, (S)-4-(5-(5-fluoro-2-methoxypyridin-4-yl)-1H-pyrazole-3-carbonyl)-N-((5-methoxypyrimidin-2-yl)methyl)-4-azaspiro[2.5]octane-7-carboxamide] | 67.9 nM | 213 nM |
| COc1cc(-c2cc(C(=O)N3CC[C@H](C(=O)NCc4ncc(C(F)(F)F)cn4)CC34CC4)n[nH]2)c(F)cn1 [Example 457, (S)-4-(5-(5-fluoro-2-methoxypyridin-4-yl)-1H-pyrazole-3-carbonyl)-N-((5-(trifluoromethyl)pyrimidin-2-yl)methyl)-4-azaspiro[2.5]octane-7-carboxamide] | 13.4 nM | 414 nM |
| COc1cc(-c2cc(C(=O)N3CC[C@H](C(=O)NC4(c5ncc(Cl)cc5Cl)CC4)CC34CC4)n[nH]2)c(F)cn1 [Example 458, (S)—N-(1-(3,5-dichloropyridin-2-yl)cyclopropyl)-4-(5-(5-fluoro-2-methoxypyridin-4-yl)-1H-pyrazole-3-carbonyl)-4-azaspiro[2.5]octane-7-carboxamide] | 3.8 nM | 26.6 nM |
| COc1cc(-c2cc(C(=O)N3CC[C@H](C(=O)NCC4(O)COC4)CC34CC4)[nH]n2)c(F)cn1 [Example 463, (S)-4-(3-(5-fluoro-2-methoxypyridin-4-yl)-1H-pyrazole-5-carbonyl)-N-((3-hydroxyoxetan-3-yl)methyl)-4-azaspiro[2.5]octane-7-carboxamide] | 180 nM | 5200 nM |
| COc1cc(-c2cc(C(=O)N3CC[C@H](C(=O)NCc4nc(C)c(C)n4C)CC34CC4)n[nH]2)c(F)cn1 [Example 465, (S)-4-(5-(5-fluoro-2-methoxypyridin-4-yl)-1H-pyrazole-3-carbonyl)-N-((1,4,5-trimethyl-1H-imidazol-2-yl)methyl)-4-azaspiro[2.5]octane-7-carboxamide] | 88.6 nM | 842 nM |
| COc1cc(-c2cc(C(=O)N3CC[C@H](C(=O)NC4CCNC4)CC34CC4)n[nH]2)c(F)cn1 (stereo partly drawn) [Example 471, (7S)-4-(5-(5-fluoro-2-methoxypyridin-4-yl)-1H-pyrazole-3-carbonyl)-N-(pyrrolidin-3-yl)-4-azaspiro[2.5]octane-7-carboxamide] | 62.6 nM | > 10000 nM |
| COc1cc(-c2cc(C(=O)N3CC[C@H](C(=O)NCc4nc(C)nn4C(C)C)CC34CC4)n[nH]2)c(F)cn1 [Example 473, (S)-4-(5-(5-fluoro-2-methoxypyridin-4-yl)-1H-pyrazole-3-carbonyl)-N-((1-isopropyl-3-methyl-1H-1,2,4-triazol-5-yl)methyl)-4-azaspiro[2.5]octane-7-carboxamide] | 443 nM | 3390 nM |

Now from value to molecule, other results behind:

| AC50 (His6-TEV-PPARγ-(234-505)) | SMILES | IC50 (UM-UC-9 engineered cells) |
| --- | --- | --- |
| 17.4 nM | COc1cc(-c2cc(C(=O)N3CC[C@H](C(=O)NCc4ncc(C(F)(F)F)[nH]4)CC34CC4)[nH]n2)c(F)cn1 [Example 476, (S)-4-(3-(5-fluoro-2-methoxypyridin-4-yl)-1H-pyrazole-5-carbonyl)-N-((5-(trifluoromethyl)-1H-imidazol-2-yl)methyl)-4-azaspiro[2.5]octane-7-carboxamide] | 406 nM |
| 42.8 nM | CC(=O)c1cc(-c2cc(C(=O)N3CCC(C(=O)NCc4ncc(F)cc4Cl)CC34CC4)n[nH]2)c(F)cn1 (centres unmarked) [Example 477, 4-(5-(2-acetyl-5-fluoropyridin-4-yl)-1H-pyrazole-3-carbonyl)-N-((3-chloro-5-fluoropyridin-2-yl)methyl)-4-azaspiro[2.5]octane-7-carboxamide] | 307 nM |
| 29.5 nM | COc1cc(-c2cc(C(=O)N3CC[C@H](C(=O)NCc4nc(N5C[C@@H](C)N[C@@H](C)C5)oc4C(F)(F)F)CC34CC4)n[nH]2)c(F)cn1 [Example 482, (S)—N-((2-((3S,5R)-3,5-dimethylpiperazin-1-yl)-5-(trifluoromethyl)oxazol-4-yl)methyl)-4-(5-(5-fluoro-2-methoxypyridin-4-yl)-1H-pyrazole-3-carbonyl)-4-azaspiro[2.5]octane-7-carboxamide] | 270 nM |
| 26.7 nM | COc1cc(-c2cc(C(=O)N3CC[C@H](C(=O)NCc4nc(N5C[C@@H](C)N(C)[C@@H](C)C5)oc4C(F)(F)F)CC34CC4)n[nH]2)c(F)cn1 [Example 485, (S)-4-(5-(5-fluoro-2-methoxypyridin-4-yl)-N-pyrazole-3-carbonyl)-N-((5-(trifluoromethyl)-2-((3S,5R)-3,4,5-trimethylpiperazin-1-yl)oxazol-4-yl)methyl)-4-azaspiro[2.5]octane-7-carboxamide] | 350 nM |
| 0.7 nM | COc1cc(-c2cc(C(=O)N3CC[C@H](C(=O)Nc4cnn5ccc(C#N)nc45)CC34CC4)n[nH]2)c(F)cn1 [Example 487, (S)—N-(5-cyanopyrazolo[1,5-a]pyrimidin-3-yl)-4-(5-(5-fluoro-2-methoxypyridin-4-yl)-1H-pyrazole-3-carbonyl)-4-azaspiro[2.5]octane-7-carboxamide] | 2.4 nM |
| 0.9 nM | COc1cc(-c2cc(C(=O)N3CC[C@H](C(=O)NC4CCN(c5ccc(C#N)nc5)C4)CC34CC4)n[nH]2)c(F)cn1 (stereo partly drawn) [Example 488, (7S)—N-(1-(6-cyanopyridin-3-yl)pyrrolidin-3-yl)-4-(5-(5-fluoro-2-methoxypyridin-4-yl)-1H-pyrazole-3-carbonyl)-4-azaspiro[2.5]octane-7-carboxamide] | 6.6 nM |
| 0.3 nM | COc1cc(-c2cc(C(=O)N3CC[C@H](C(=O)NCc4ncc(OC(C)C)cc4Cl)CC34CC4)n[nH]2)c(F)cn1 [Example 491, (S)—N-((3-chloro-5-isopropoxypyridin-2-yl)methyl)-4-(5-(5-fluoro-2-methoxypyridin-4-yl)-1H-pyrazole-3-carbonyl)-4-azaspiro[2.5]octane-7-carboxamide] | 11 nM |
| 6.7 nM | COc1cc(-c2cc(C(=O)N3CC[C@H](C(=O)Nc4cnn5cc(C(C)=O)ccc45)CC34CC4)n[nH]2)c(F)cn1 [Example 494, (S)—N-(6-acetylpyrazolo[1,5-a]pyridin-3-yl)-4-(5-(5-fluoro-2-methoxypyridin-4-yl)-1H-pyrazole-3-carbonyl)-4-azaspiro[2.5]octane-7-carboxamide] | 80.8 nM |
| 9.6 nM | COc1cc(-c2cc(C(=O)N3CC[C@H](C(=O)NC4CCC5(COC5)c5cccnc54)CC34CC4)n[nH]2)c(F)cn1 (stereo partly drawn) [Example 496, (7S)—N-(7′,8′-dihydro-6′H-spiro[oxetane-3,5′-quinolin]-8′-yl)-4-(5-(5-fluoro-2-methoxypyridin-4-yl)-1H-pyrazole-3-carbonyl)-4-azaspiro[2.5]octane-7-carboxamide] | 68.2 nM |
| 87.7 nM | CCN1CC(NC(=O)[C@H]2CCN(C(=O)c3cc(-c4cc(OC)ncc4F)[nH]n3)C3(CC3)C2)CCC12COC2 (stereo partly drawn) [Example 497, (7S)—N-(5-ethyl-2-oxa-5-azaspiro[3.5]nonan-7-yl)-4-(5-(5-fluoro-2-methoxypyridin-4-yl)-1H-pyrazole-3-carbonyl)-4-azaspiro[2.5]octane-7-carboxamide] | 645 nM |
